Source: patent publication US20220046925A1, “METHOD OF CONTROLLING PESTS BY SEED TREATMENT APPLICATION OF A MESOIONIC COMPOUND OR MIXTURE THEREOF” (BASF SE, priority 2018, published 2022)
Like-named read-outs stand apart in the source and are kept apart here. Marks after values point to notes of the source that are not given here.

Assays:
Format in all cases: in vivo
Phyllotreta striolata = test: Canola seed treatment against striped flea beetle; details: rate 400 (unit not given), 300 g ai/L formulation, cotyledon stage
Description: Canola seed treatment: Formulation was diluted in water to make appropriate concentration according to needs. Canola seeds with pre-coating inert ingredients were treated with diluted solution by vortex methods. Treated seeds were dried in ventilating chemical hood. After dry, three seeds were planted per pot (2×2 inch) at a depth of 1 cm, which were filled with Patio sand and watered prior to treatment and planting. The pots were arranged in a completely randomized design, kept in the greenhouse, and automatically top-watered and fertilized daily (NPK 16-4-20-3(Ca)-1(Mg)). At the cotyledon stage [˜7 days after treatment (DAT)], plants were thinned to 1 plant per pot. One set of plants was infested at the cotyledon stage and another set at the first true-leaf stage. Both cotyledons of a single plant were excised, and true leaves were sampled using a ⅝″ (1.59-cm) diameter leaf disc. Leaf samples were placed on a piece of 47-mm filter paper moistened with 0.225 mL distilled water in a 50-mm Petri dish. Five flea beetles were then infested into the petri dish. The dishes were held in an incubator at 27° C., 60% RH, and a 16L:8D light cycle. Five days after infestation (DAI), the numbers of live, moribund, and dead flea beetles were recorded, as well as % feeding damage (via visual estimate). […] Percent mortality was calculated for each treatment, with moribund insects classified as alive.

Rhopalosiphum padi = test: Barley seed treatment against bird cherry oat aphid; details: 100 g ai/100 kg seed, first true leaf stage
Description: Barley seed treatment: Technical material was dissolved in DMSO. Twenty barely seeds were treated with a vortex method and planted in a pot (2×2 inch) filled with Rediearth soil. One seed was planted per pot and the pots were arranged in a completely randomized design, held in the greenhouse, and top-watered and fertilized daily. Four seedlings were taken from each cotyledon & true leaf treatment samples. DMSO solvent blank were used as positive and negative treatments, respectively. The true leaf stage was infested 14 days after planting (DAP). Ten bird cherry-oat aphids of mixed stages were transferred individually to each plant with a paint brush. Six replicates were set up for each treatment. After infestation, plants were kept on a light cart at room temperature and bottom watered until evaluated. The number of live aphids at 4 days after infestation (4DAI) was recorded, and means were calculated for each treatment. Percent control was calculated as the percent reduction in live aphids relative to the solvent blank.

Myzus persicae = test: Sugarbeet seed treatment against green peach aphid
Description: Sugarbeet seed treatment: Seeds were treated in according to desired rates. Seeds were planted (one per pot) at a depth of 1.5 cm in 3×3 in (58.0644 cm2) pots that were filled with RediEarth soil and moistened prior to planting. Pots were held in a completely randomized design in the greenhouse and automatically top watered and fertilized [NPK 16-4-20-3(Ca)-1(Mg)] daily (4 min, 4× a day) until infestation. A set of plants was infested 7, 14, 21 and 28 days after treatment (DAT). Thirty aphids were transferred individually to each plant with a paint brush. After infestation, plants were kept on a light cart at room temperature with continuous light and bottom watered until evaluation. Six days after infestation (DAI), the number of live aphids was recorded, and means were calculated for each treatment. Percent control was calculated as the percent reduction in live aphids relative to the solvent blank.

Elasmopalpus sp = test: Soybean seed treatment against lesser corn stalkborer (cage)
Description: Soybean seed treatment: Soybean seeds were treated with Compound I-R-1. The treated seeds were sown inside an enclosed cage, in two lines at 29 seeds/cage. Thirty-five 3rd instar larvae of Elasmopalpus sp were introduced into each cage at six days after sowing. The number of dead and live plants were counted periodically.

Dichelops melacanthus = test: Corn seed treatment against green belly stink bug (cage); details: for mortality at 30 g/ha: Dichelops melacanthus
Description: Corn seed treatment: Corn seeds were treated with Compound I-R-1. The treated seeds were sown inside an enclosed cage, at 16 seeds/cage. Twenty-four stinkbugs, were introduced into each cage. The number of dead and live stinkbugs were counted periodically.

Frankliniella fusca [1] = test: Cotton seed treatment against tobacco thrips (field)
Description: Cotton seed treatment: Field studies were carried out against tobacco thrips using cotton seeds treated with 0.375 mg ai/seed of Compound I-R-1. Treated Seeds were sown in 30 sq m plots. There were 4 replications for each treatment. Feeding damage was assessed at 5 and 7 days after planting (DAP).

Frankliniella fusca [2] = test: Peanut seed treatment against tobacco thrips (field)
Description: Peanut seed treatment: Field trials were laid out. Treated peanut seeds were sown in 8 sq m plots using 4 replications. Feeding damage was assessed at 28 and 35 days after treatment.

[3] = tested on: Leptinotarsa decimlineata; test: Potato seed piece treatment against Colorado potato beetle
Description: 8. Potato—Colorado Potato Beetle (Leptinotarsa decimlineata) Potato seed piece treatment: Seed potatoes were treated by spraying. After application, potatoes were allowed to dry prior to planting. The plots were laid out in 6-meter rows with 4 replications. Feeding damage assessments were taken at 42 and 50 days after planting.

[4] = tested on: Rhopalosiphum padi (RHOPPA); test: Barley seed treatment with mixtures against Rhopalosiphum padi (Colby synergy); details: cotyledon stage, 4 days after infestation
Description: (§1) When the observed combined control effect is greater than the expected combined control effect (E), then the combined effect is synergistic.
(§2) Sub-lethal rates were predetermined by rate rundown. Formulations were combined and diluted in water and applied to barley seeds which were allowed to dry. Seeds were then planted and grown in a greenhouse. At the cotyledon stage, bird cherry-oat aphids (Rhopalosiphum padi) of mixed stages were infested onto each plant and held under laboratory conditions. Replication was 6×. Four days after infestation, the number of live aphids on each plant was recorded, and means were calculated for each treatment. Percent control was calculated as the percent reduction in live aphids relative to the solvent blank (Sun-Shepard method).

[5] = tested on: Frankliniella occidentalis (FRANOC); test: Cotton seed treatment with mixtures against Frankliniella occidentalis (Colby synergy); details: 7DAI
Description: as §1
as §2, with “cotton” for “barley”, “western flower thrips (Frankliniella occidentalis) adults” for “bird cherry-oat aphids (Rhopalosiphum padi) of mixed stages”, “5×. Seven and 14” for “6×. Four”, “percent damage” for “the number of live aphids on each plant”, “visually assessed,” for “recorded,”

C[n+]1c([O-])c(-c2ccccc2)c(=O)n2c1SC[C@@H]2c1cnc(Cl)s1 (single isomer, unassigned) [Compound I-R-1]
Mean % feeding damage (5DAI, 13DAP) (Phyllotreta striolata; 5DAI, 13DAP): 19^b % | Mean % Feeding Damage Reduction Relative to SB (Phyllotreta striolata; relative to solvent blank): 58% | Mean % Population Reduction (18 DAP, 4DAI) (Rhopalosiphum padi): ≥90% | Mean % Population Reduction Relative to SB @ 6DAI, 7 DAP (Myzus persicae; sugar beet seed treatment, 80 g ai/1 kg seed, infested 7 DAP, 6DAI): 100% | Mean % Population Reduction Relative to SB @ 6DAI, 14 DAP (Myzus persicae; sugar beet seed treatment, 80 g ai/1 kg seed, infested 14 DAP, 6DAI): ≥90% | Mean % Population Reduction Relative to SB @ 6DAI, 21 DAP (Myzus persicae; sugar beet seed treatment, 80 g ai/1 kg seed, infested 21 DAP, 6DAI): ≥90% | Mean % Population Reduction Relative to SB @ 6DAI, 28 DAP (Myzus persicae; sugar beet seed treatment, 80 g ai/1 kg seed, infested 28 DAP, 6DAI): ≥90% | activity against green peach aphid by sugarbeet seed treatment (in words) (Myzus persicae; sugarbeet seed treatment): excellent activity | activity as far as 4 weeks after plant (in words) (Myzus persicae; sugarbeet seed treatment, 4 weeks after plant): excellent activity | efficacy against Elasmopalpus sp. in terms of plant protection (in words) (Elasmopalpus sp): good efficacy | Number of dead plants/plot, A03 (Elasmopalpus sp; 50 g ai/ha, assessment A03): 1.50 a | Number of dead plants/plot, A07 (Elasmopalpus sp; 50 g ai/ha, assessment A07): 4.50 ab | Number of dead plants/plot, A14 (Elasmopalpus sp; 50 g ai/ha, assessment A14): 5.25 b | Number of dead plants/plot, A21 (Elasmopalpus sp; 50 g ai/ha, assessment A21): 6.75 b | mortality at 30 g/ha (Dichelops melacanthus; read-out: Percentage mortality (%), A01): 5.4% | mortality at 30 g/ha (Dichelops melacanthus; read-out: Percentage mortality (%), A03): 24.6% | mortality at 30 g/ha (Dichelops melacanthus; read-out: Percentage mortality (%), A07): 13% | mortality at 30 g/ha (Dichelops melacanthus; read-out: Percentage mortality (%), A14): 35.3% | mortality at 30 g/ha (Dichelops melacanthus; read-out: Percentage mortality (%), A21): 61.5% | efficacy against green belly stink bug (in words) (Dichelops melacanthus; corn seed treatment): good efficacy | efficacy against F. fusca in terms of reduction in feeding damage (in words) (Frankliniella fusca [1]): excellent efficacy | Feeding damage (%), 5 DAP (Frankliniella fusca [1]; 0.375 mg ai/seed, field, 5 DAP): 6.0 b % | Feeding damage (%), 7 DAP (Frankliniella fusca [1]; 0.375 mg ai/seed, field, 7 DAP): 12.5 c % | efficacy against F. fusca in terms of reduction in feeding damage (in words) (Frankliniella fusca [2]): good efficacy | Feeding damage (%), A28 (Frankliniella fusca [2]; 0.68 mg ai/seed, field, 28 days after treatment): 13.0 b % | Feeding damage (%), A35 (Frankliniella fusca [2]; 0.68 mg ai/seed, field, 35 days after treatment): 13.5 b % | efficacy against L. decimlineata regarding reduction in feeding damage (in words) [3]: good efficacy | Feeding damage, A42 ([3]; 400 g ai/ha, 42 days after planting): 3.0 b | Feeding damage, A50 ([3]; 400 g ai/ha, 50 days after planting): 11.3 bc | % activity (population reduction), solo application ([4]; 5 g ai/100 kg seeds): 46% | % activity (population reduction), solo application ([4]; 14 g ai/100 kg seeds): 59% | % activity (feeding damage reduction), solo application ([5]; use rate 0.375 (head: g ai/100 kg seeds)): 19%

CN1COCN(Cc2cnc(Cl)s2)/C1=N\[N+](=O)[O-] [thiamethoxam, reference compound]
% activity (feeding damage reduction), solo application ([5]; use rate 0.300 (head: g ai/100 kg seeds)): 37%

O=C1C=C(N(Cc2ccc(Cl)nc2)CC(F)F)CO1 [Flupyradifurone]
% activity (population reduction), solo application ([4]; 21 g ai/100 kg seeds): 36%

CCN(C(=O)c1cnn(C(C)C(C)C)c1C)c1ccnnc1 (stereo not drawn) [Dimpropyridaz, 1-(1,2-dimethylpropyl)-N-ethyl-5-methyl-N-pyridazin-4-yl-pyrazole-4-carboxamide]
% activity (population reduction), solo application ([4]; 18 g ai/100 kg seeds): 5% | % activity (population reduction), solo application ([4]; 46 g ai/100 kg seeds): 11%
